In patent US10196391B2 (Hoffmann-La Roche Inc., priority 2014, dated 2019):

Test system: HBsAg
Experiment: HBsAg assay (CLIA) in HepG2.2.15 cells
Type: cell-based, HBV
Settings: Hepatitis B virus, HepG2.2.15, read-out: IC50 (HBsAg assay)
Method: HepG2.2.15 cells (Acs et al. Proc Natl Acad Sci USA, 84, (1987), 4641-4), a constitutively HBV-expressing cell line were cultured in DMEM+Glutamax-I medium (Invitrogen, Carlsbad, Calif., USA), supplemented with 10% fetal bovine serum (Invitrogen) and G418 (Invitrogen) at a final concentration of 200 mg/L and maintained in 5% CO2 at 37° C.
HepG2.2.15 cells were seeded in duplicate into white, 96-well plates at 1.5×10^4 cells/well. The cells were treated with a three-fold serial dilution series of the compounds in DMSO. The final DMSO concentration in all wells was 1% and DMSO was used as no drug control.
The HBsAg chemiluminescence immunoassay (CLIA) kit (Autobio Diagnostics Co., Zhengzhou, China, Catalog number: CL0310-2) was used to measure the levels of secreted HBV antigens semi-quantitatively. For the detection 50 μL/well culture supernatant was used and HBsAg was quantified using HBsAg chemiluminescence immunoassay (CLIA) kit (Autobio Diagnostics Co., Zhengzhou, China, Catalog number: CL0310-2), 50 μL of the supernatant was transferred to the CLIA assay plate and 50 μL of enzyme conjugate reagent was added into each well. The plates were sealed and gently agitated for 1 hour at room temperature. The supernatant-enzyme-mixture was discarded and wells were washed 6 times with 300 μL of PBS. The residual liquid was removed by plating the CLIA plate […] on absorbent tissue paper. 25 μL of substrates A and B were added to each well. Luminance was measured using a luminometer (Mithras LB 940 Multimode Microplate Reader) after 10 minutes incubation. Dose-response curves were generated and the IC50 value was extrapolated by using the E-WorkBook Suite (ID Business Solutions Ltd., Guildford, UK). The IC50 was defined as the compound concentration (or conditioned media log dilution) at which HBsAg secretion was reduced by 50% compared to the no drug control.
The compounds according to formula I were tested for their capacity to inhibit HBsAg as described herein.

Going from `COc1cccc(-c2ncc3c(n2)CCN(c2cc(F)c(F)c(OC)c2)C3)n1` [Example 25, 6-(3,4-difluoro-5-methoxy-phenyl)-2-(6-methoxy-2-pyridyl)-7,8-dihydro-5H-pyrido[4,3-d]pyrimidine] to `COc1cc(N2CCc3nc(-c4ccccn4)ncc3C2)cc(F)c1F` [Example 17, 6-(3,4-difluoro-5-methoxy-phenyl)-2-(2-pyridyl)-7,8-dihydro-5H-pyrido[4,3-d]pyrimidine], the IC50 falls from 16 µM to 0.154 µM (100-fold). The second is the more potent here.

Compared with `COc1nc(-c2ccccn2)nc2c1CN(c1ccc(S(C)(=O)=O)cc1)CC2` [Example 81], `CCOc1nc(-c2ccccn2)nc2c1CN(c1ccc(S(C)(=O)=O)cc1)CC2` [Example 82] is 3.4-fold lower in IC50: 11.3 µM for the first, 3.35 µM for the second. The second is the more potent here.

First: CCCOc1ccc(N2CCc3nc(-c4ccccn4)ncc3C2)cc1F [Example 55, 6-(3-fluoro-4-propoxy-phenyl)-2-(2-pyridyl)-7,8-dihydro-5H-pyrido[4,3-d]pyrimidine]
Second: Fc1ccc(N2CCc3nc(-c4ccccn4)ncc3C2)cc1F [Example 10, 6-(3,4-difluorophenyl)-2-(2-pyridyl)-7,8-dihydro-5H-pyrido[4,3-d]pyrimidine]
The IC50 of the first is 2.3-fold lower: 1.18 µM for the first, 2.69 µM for the second. The first is the more potent here.

First: COc1cc(F)cc(N2CCc3nc(-c4ccccn4)ncc3C2)c1 [Example 91, 6-(3-fluoro-5-methoxy-phenyl)-2-(2-pyridyl)-7,8-dihydro-5H-pyrido[4,3-d]pyrimidine]
Second: Cc1cc(F)cc(N2CCc3nc(-c4ccccn4)ncc3C2)c1 [Example 40, 6-(3-fluoro-5-methyl-phenyl)-2-(2-pyridyl)-7,8-dihydro-5H-pyrido[4,3-d]pyrimidine]
The IC50 of the first is 3.4-fold lower: 0.198 µM for the first, 0.669 µM for the second. The first is the more potent here.

First: CNc1nc(-c2ccccn2)nc2c1CN(c1ccc(S(C)(=O)=O)cc1)CC2 [Example 88]
Second: Cc1nc(-c2ccccn2)nc2c1CN(c1ccc(S(C)(=O)=O)cc1)CC2 [Example 87]
The IC50 of the first is 2.6-fold higher: 26.4 µM for the first, 10.3 µM for the second.

`c1ccc(-c2ncc3c(n2)CCN(c2cccnc2)C3)nc1` [Example 39, 2-(2-pyridyl)-6-(3-pyridyl)-7,8-dihydro-5H-pyrido[4,3-d]pyrimidine] and `c1ccc(-c2ncc3c(n2)CCN(c2ccccn2)C3)nc1` [Example 35, 2,6-bis(2-pyridyl)-7,8-dihydro-5H-pyrido[4,3-d]pyrimidine] are within 1.5-fold of each other in IC50: 9.12 µM for the first, 8.21 µM for the second.

`COCCCOc1cc(N2CCc3nc(-c4ccccn4)ncc3C2)cc(F)c1F` [Example 19, 6-[3,4-difluoro-5-(3-methoxypropoxy)phenyl]-2-(2-pyridyl)-7,8-dihydro-5H-pyrido[4,3-d]pyrimidine] and `COCCOc1cc(N2CCc3nc(-c4ccccn4)ncc3C2)cc(F)c1F` [Example 23, 6-[3,4-difluoro-5-(2-methoxyethoxy)phenyl]-2-(2-pyridyl)-7,8-dihydro-5H-pyrido[4,3-d]pyrimidine] are within 1.5-fold of each other in IC50: 0.461 µM for the first, 0.549 µM for the second.

First: COc1nc(N2CCc3nc(-c4ncccn4)ncc3C2)ccc1F [Example 72, 6-(5-fluoro-6-methoxy-2-pyridyl)-2-pyrimidin-2-yl-7,8-dihydro-5H-pyrido[4,3-d]pyrimidine]
Second: COc1cc(Cl)nc(N2CCc3nc(-c4ncccn4)ncc3C2)c1 [Example 108, 6-(6-chloro-4-methoxy-2-pyridyl)-2-pyrimidin-2-yl-7,8-dihydro-5H-pyrido[4,3-d]pyrimidine]
The IC50 of the first is 5.4-fold higher: 1.43 µM for the first, 0.263 µM for the second.

`O=C(O)c1ccc(N2CCc3nc(-c4ccccn4)ncc3C2)cc1` [Example 32, 4-[2-(2-pyridyl)-7,8-dihydro-5H-pyrido[4,3-d]pyrimidin-6-yl]benzoic acid] and `Cc1ccc(N2CCc3nc(-c4ccccn4)ncc3C2)cc1` [Example 47, 6-(p-tolyl)-2-(2-pyridyl)-7,8-dihydro-5H-pyrido[4,3-d]pyrimidine] are within 1.5-fold of each other in IC50: 9.75 µM for the first, 11.4 µM for the second.

Compared with `FC(F)Oc1cccc(N2CCc3nc(-c4ncccn4)ncc3C2)c1` [Example 63, 6-[3-(difluoromethoxy)phenyl]-2-pyrimidin-2-yl-7,8-dihydro-5H-pyrido[4,3-d]pyrimidine], `COc1cc(F)cc(N2CCc3nc(-c4ncccn4)ncc3C2)c1` [Example 117, 6-(3-fluoro-5-methoxy-phenyl)-2-pyrimidin-2-yl-7,8-dihydro-5H-pyrido[4,3-d]pyrimidine] is 12-fold lower in IC50: 1.94 µM for the first, 0.157 µM for the second. The second is the more potent here.

First: COc1cc(N2CCc3nc(-c4ncccn4)ncc3C2)cc(F)c1F [Example 26, 6-(3,4-difluoro-5-methoxy-phenyl)-2-pyrimidin-2-yl-7,8-dihydro-5H-pyrido[4,3-d]pyrimidine]
Second: COc1cc(N2CCc3nc(-c4ncccn4)ncc3C2)cc(F)c1C#N [Example 77, 2-fluoro-6-methoxy-4-(2-pyrimidin-2-yl-7,8-dihydro-5H-pyrido[4,3-d]pyrimidin-6-yl)benzonitrile]
The IC50 of the first is 4.3-fold lower: 0.061 µM for the first, 0.265 µM for the second. The first is the more potent here.

Compared with `COCCCNC(=O)c1cc(F)cc(N2CCc3nc(-c4ncccn4)ncc3C2)c1` [Example 106, 3-fluoro-N-(3-methoxypropyl)-5-(2-pyrimidin-2-yl-7,8-dihydro-5H-pyrido[4,3-d]pyrimidin-6-yl)benzamide], `NC(=O)c1cc(F)cc(N2CCc3nc(-c4ncccn4)ncc3C2)c1` [Example 105, 3-fluoro-5-(2-pyrimidin-2-yl-7,8-dihydro-5H-pyrido[4,3-d]pyrimidin-6-yl)benzamide] is 14-fold higher in IC50: 1.34 µM for the first, 18.1 µM for the second. The first is the more potent here.

Going from `COc1cc([N+](=O)[O-])ccc1N1CCc2nc(-c3ccccn3)ncc2C1` [Example 34, 6-(2-methoxy-4-nitro-phenyl)-2-(2-pyridyl)-7,8-dihydro-5H-pyrido[4,3-d]pyrimidine] to `COc1ccc(N2CCc3nc(-c4ccccn4)ncc3C2)c(F)c1F` [Example 61, 6-(2,3-difluoro-4-methoxy-phenyl)-2-(2-pyridyl)-7,8-dihydro-5H-pyrido[4,3-d]pyrimidine], the IC50 rises from 0.874 µM to 3.03 µM (3.5-fold). The first is the more potent here.

Going from `COc1cc(C#N)cc(N2CCc3nc(-c4ncccn4)ncc3C2)c1` [Example 76, 3-methoxy-5-(2-pyrimidin-2-yl-7,8-dihydro-5H-pyrido[4,3-d]pyrimidin-6-yl)benzonitrile] to `COc1cc(Cl)cc(N2CCc3nc(-c4ncccn4)ncc3C2)c1` [Example 98, 6-(3-chloro-5-methoxy-phenyl)-2-pyrimidin-2-yl-7,8-dihydro-5H-pyrido[4,3-d]pyrimidine], the IC50 falls from 1.51 µM to 0.268 µM (5.6-fold).

Compared with `Cc1cccnc1-c1ncc2c(n1)CCN(c1ccc(S(C)(=O)=O)cc1)C2` [Example 4, 2-(3-methyl-2-pyridyl)-6-(4-methylsulfonylphenyl)-7,8-dihydro-5H-pyrido[4,3-d]pyrimidine], `CS(=O)(=O)c1ccc(N2CCc3nc(-c4ccccn4)ncc3C2)cc1` [Example 1, 6-(4-methylsulfonylphenyl)-2-(2-pyridyl)-7,8-dihydro-5H-pyrido[4,3-d]pyrimidine] is 4.2-fold lower in IC50: 17.8 µM for the first, 4.24 µM for the second. The second is the more potent here.

First: COc1cc(N2CCc3nc(-c4cnccn4)ncc3C2)cc(F)c1F [Example 28, 6-(3,4-difluoro-5-methoxy-phenyl)-2-pyrazin-2-yl-7,8-dihydro-5H-pyrido[4,3-d]pyrimidine]
Second: Fc1cc(N2CCc3nc(-c4ccccn4)ncc3C2)cc(OCc2ccccc2)c1F [Example 20, 6-(3-benzyloxy-4,5-difluoro-phenyl)-2-(2-pyridyl)-7,8-dihydro-5H-pyrido[4,3-d]pyrimidine]
The IC50 of the first is 6.2-fold lower: 0.455 µM for the first, 2.84 µM for the second. The first is the more potent here.

Compared with `COc1cc(N2CCc3nc(-c4ncccn4)ncc3C2)cc(C(F)(F)F)c1` [Example 100, 6-[3-methoxy-5-(trifluoromethyl)phenyl]-2-pyrimidin-2-yl-7,8-dihydro-5H-pyrido[4,3-d]pyrimidine], `Fc1cc(C2CC2)cc(N2CCc3nc(-c4ncccn4)ncc3C2)c1` [Example 42, 6-(3-cyclopropyl-5-fluoro-phenyl)-2-pyrimidin-2-yl-7,8-dihydro-5H-pyrido[4,3-d]pyrimidine] is 2-fold higher in IC50: 0.278 µM for the first, 0.566 µM for the second.

First: Fc1ccc(N2CCc3nc(-c4ccccn4)ncc3C2)cc1Br [Example 51, 6-(3-bromo-4-fluoro-phenyl)-2-(2-pyridyl)-7,8-dihydro-5H-pyrido[4,3-d]pyrimidine]
Second: COC(=O)c1ccc(N2CCc3nc(-c4ccccn4)ncc3C2)cc1F [Example 15, methyl 2-fluoro-4-[2-(2-pyridyl)-7,8-dihydro-5H-pyrido[4,3-d]pyrimidin-6-yl]benzoate]
The IC50 of the first is 1.7-fold lower: 5.36 µM for the first, 9.23 µM for the second.

`COc1cccc(N2CCc3nc(-c4ccccn4)ncc3C2)c1` [Example 92, 6-(3-methoxyphenyl)-2-(2-pyridyl)-7,8-dihydro-5H-pyrido[4,3-d]pyrimidine] and `COCCOc1ccc(N2CCc3nc(-c4ccccn4)ncc3C2)cc1OC` [Example 57, 6-[3-methoxy-4-(2-methoxyethoxy)phenyl]-2-(2-pyridyl)-7,8-dihydro-5H-pyrido[4,3-d]pyrimidine] are within 1.5-fold of each other in IC50: 2.89 µM for the first, 2.17 µM for the second.

`C/C=C/c1nc(-c2ccccn2)nc2c1CN(c1ccc(S(C)(=O)=O)cc1)CC2` [Example 84] and `Fc1ccc(N2CCc3nc(-c4ccccn4)ncc3C2)c(F)c1` [Example 14, 6-(2,4-difluorophenyl)-2-(2-pyridyl)-7,8-dihydro-5H-pyrido[4,3-d]pyrimidine] are within 1.5-fold of each other in IC50: 8.56 µM for the first, 9.51 µM for the second.
